These results are taken from patent US12084472B2 (Ardelyx, Inc., priority 2015, dated 2024).

The target of this experiment is T1, human TGR5 (Homo sapiens, UniProt Q8TDU6).
T1 construct: expressed in transfected cells; host or cells: HEK293
T1 sequence (Q8TDU6 1-330): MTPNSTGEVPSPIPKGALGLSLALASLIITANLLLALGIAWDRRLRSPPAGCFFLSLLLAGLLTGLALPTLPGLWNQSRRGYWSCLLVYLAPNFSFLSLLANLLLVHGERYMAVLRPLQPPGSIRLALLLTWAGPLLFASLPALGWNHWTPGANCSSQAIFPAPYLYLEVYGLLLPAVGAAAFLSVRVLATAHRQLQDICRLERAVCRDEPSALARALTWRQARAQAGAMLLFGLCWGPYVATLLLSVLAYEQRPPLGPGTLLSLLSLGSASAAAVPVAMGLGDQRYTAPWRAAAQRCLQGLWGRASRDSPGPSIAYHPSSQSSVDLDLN
The experiment in a line: Cell-based TGR5 assay (cAMP generation, HTRF). Particulars: HEK293 cells stably transfected with human TGR5; cAMP by HTRF; 30 minutes at 37° C.; read-out: pEC50 Human TGR5 (converted). A digest of the protocol: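 First, compounds in 3-fold serial dilution were placed in HBSS with 10 mM HEPES pH 7.4 and 0.5 mM IBMX. Next, human TGR5-expressing HEK293 cells were added and incubated 30 min at 37° C. Finally, cAMP was detected by HTRF and pEC50 derived by logistic fitting.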
(In general: Time-resolved FRET reads energy transfer from a long-lived donor to a nearby acceptor.)
With `CC(CCCC(=O)N(CCC(=O)N(C)C)C[C@H](O)[C@@H](O)[C@H](O)[C@H](O)CO)c1ccc(Cl)c(CNC2(c3cnccc3-c3ccccc3OC3CC3)CC2)c1` (stereo partly drawn) [Compound I-345, 5-{4-chloro-3-[({1-[4-(2-cyclopropoxyphenyl)pyridin-3-yl]cyclopropyl}amino)methyl]phenyl}-N-[2-(dimethylcarbamoyl)ethyl]-N-[(2S,3R,4R,5R)-2,3,4,5,6-pentahydroxyhexyl]hexanamide], the EC50 is 126 to 1000 nM. In the case of `CC(CCCC(=O)N(CCS(C)(=O)=O)C[C@@H](O)[C@H](O)[C@@H](O)[C@@H](O)CO)c1ccc(Cl)c(CNC2(c3cnccc3-c3ccccc3OC3CC3)CC2)c1` (stereo partly drawn) [Compound I-346, 5-{4-chloro-3-[({1-[4-(2-cyclopropoxyphenyl)pyridin-3-yl]cyclopropyl}amino)methyl]phenyl}-N-(2-methanesulfonylethyl)-N-[(2R,3S,4S,5S)-2,3,4,5,6-pentahydroxyhexyl]hexanamide], the EC50 is less than 100 nM. In the case of `CC(CCCC(=O)N(CCCS(C)(=O)=O)C[C@H](O)[C@@H](O)[C@H](O)[C@H](O)CO)c1ccc(Cl)c(CNC2(c3cnccc3-c3ccccc3OC3CC3)CC2)c1` (stereo partly drawn) [Compound I-347, 5-{4-chloro-3-[({1-[4-(2-cyclopropoxyphenyl)pyridin-3-yl]cyclopropyl}amino)methyl]phenyl}-N-(3-methanesulfonylpropyl)-N-[(2S,3R,4R,5R)-2,3,4,5,6-pentahydroxyhexyl]hexanamide], the EC50 is less than 100 nM. For the molecule `CC(CCCC(=O)N(CCS(=O)(=O)N(C)C)C[C@H](O)[C@@H](O)[C@H](O)[C@H](O)CO)c1ccc(Cl)c(CNC2(c3cnccc3-c3ccccc3OC3CC3)CC2)c1` (stereo partly drawn) [Compound I-348, 5-{4-chloro-3-[({1-[4-(2-cyclopropoxyphenyl)pyridin-3-yl]cyclopropyl}amino)methyl]phenyl}-N-[2-(dimethylsulfamoyl)ethyl]-N-[(2S,3R,4R,5R)-2,3,4,5,6-pentahydroxyhexyl]hexanamide], the EC50 is less than 100 nM. For `CCc1ccc(C(C)CCCC(=O)NC[C@H](O)[C@@H](O)[C@H](O)[C@H](O)CO)cc1CNC1(c2cnccc2-c2ccccc2OC2CC2)CC1` (stereo partly drawn) [Compound I-349, 5-{3-[({1-[4-(2-cyclopropoxyphenyl)pyridin-3-yl]cyclopropyl}amino)methyl]-4-ethylphenyl}-N-[(2S,3R,4R,5R)-2,3,4,5,6-pentahydroxyhexyl]hexanamide], the EC50 is less than 100 nM. In the case of `Cc1ccc(C(C)CCCC(=O)N(C)C[C@H](O)[C@@H](O)[C@H](O)[C@H](O)CO)cc1CNC1(c2cnccc2-c2ccccc2OC2CC2)CC1` (stereo partly drawn) [Compound I-352, 5-{3-[({1-[4-(2-cyclopropoxyphenyl)pyridin-3-yl]cyclopropyl}amino)methyl]-4-methylphenyl}-N-methyl-N-[(2S,3R,4R,5R)-2,3,4,5,6-pentahydroxyhexyl]hexanamide] it was less than 100 nM. For `Cc1ccc(C(C)CCCC(=O)N(C[C@H](O)[C@@H](O)[C@H](O)[C@H](O)CO)C(C)C)cc1CNC1(c2cnccc2-c2ccccc2OC2CC2)CC1` (stereo partly drawn) [Compound I-353, 5-{3-[({1-[4-(2-cyclopropoxyphenyl)pyridin-3-yl]cyclopropyl}amino)methyl]-4-methylphenyl}-N-[(2S,3R,4R,5R)-2,3,4,5,6-pentahydroxyhexyl]-N-(propan-2-yl)hexanamide], the EC50 is less than 100 nM.

Turning to `CCCN(C[C@H](O)[C@@H](O)[C@H](O)[C@H](O)CO)C(=O)CCCC(C)c1ccc(C)c(CNC2(c3cnccc3-c3ccccc3OC3CC3)CC2)c1` (stereo partly drawn) [Compound I-354, 5-{3-[({1-[4-(2-cyclopropoxyphenyl)pyridin-3-yl]cyclopropyl}amino)methyl]-4-methylphenyl}-N-[(2S,3R,4R,5R)-2,3,4,5,6-pentahydroxyhexyl]-N-propylhexanamide], the EC50 was less than 100 nM. Turning to `Cc1ccc(C(C)CCCC(=O)N(CCO)C[C@H](O)[C@@H](O)[C@H](O)[C@H](O)CO)cc1CNC1(c2cnccc2-c2ccccc2OC2CC2)CC1` (stereo partly drawn) [Compound I-355, 5-{3-[({1-[4-(2-cyclopropoxyphenyl)pyridin-3-yl]cyclopropyl}amino)methyl]-4-methylphenyl}-N-(2-hydroxyethyl)-N-[(2S,3R,4R,5R)-2,3,4,5,6-pentahydroxyhexyl]hexanamide], the EC50 is less than 100 nM. For `Cc1ccc(C(C)CCCC(=O)N(CC(N)=O)C[C@H](O)[C@@H](O)[C@H](O)[C@H](O)CO)cc1CNC1(c2cnccc2-c2ccccc2OC2CC2)CC1` (stereo partly drawn) [Compound I-356, N-(carbamoylmethyl)-5-{3-[({1-[4-(2-cyclopropoxyphenyl)pyridin-3-yl]cyclopropyl}amino)methyl]-4-methylphenyl}-N-[(2S,3R,4R,5R)-2,3,4,5,6-pentahydroxyhexyl]hexanamide], the EC50 is less than 100 nM. In the case of `COCCN(C[C@H](O)[C@@H](O)[C@H](O)[C@H](O)CO)C(=O)CCCC(C)c1ccc(C)c(CNC2(c3cnccc3-c3ccccc3OC3CC3)CC2)c1` (stereo partly drawn) [Compound I-357, 5-{3-[({1-[4-(2-cyclopropoxyphenyl)pyridin-3-yl]cyclopropyl}amino)methyl]-4-methylphenyl}-N-(2-methoxyethyl)-N-[(2S,3R,4R,5R)-2,3,4,5,6-pentahydroxyhexyl]hexanamide] it was less than 100 nM. For the molecule `Cc1ccc(C(C)CCCC(=O)N(CCCO)C[C@H](O)[C@@H](O)[C@H](O)[C@H](O)CO)cc1CNC1(c2cnccc2-c2ccccc2OC2CC2)CC1` (stereo partly drawn) [Compound I-358, 5-{3-[({1-[4-(2-cyclopropoxyphenyl)pyridin-3-yl]cyclopropyl}amino)methyl]-4-methylphenyl}-N-(3-hydroxypropyl)-N-[(2S,3R,4R,5R)-2,3,4,5,6-pentahydroxyhexyl]hexanamide], the EC50 is 126 to 1000 nM. Turning to `Cc1ccc(C(C)CCCC(=O)N(CCC(N)=O)C[C@H](O)[C@@H](O)[C@H](O)[C@H](O)CO)cc1CNC1(c2cnccc2-c2ccccc2OC2CC2)CC1` (stereo partly drawn) [Compound I-359, N-(2-carbamoylethyl)-5-{3-[({1-[4-(2-cyclopropoxyphenyl)pyridin-3-yl]cyclopropyl}amino)methyl]-4-methylphenyl}-N-[(2S,3R,4R,5R)-2,3,4,5,6-pentahydroxyhexyl]hexanamide], the EC50 was 126 to 1000 nM. With `CNC(=O)CN(C[C@H](O)[C@@H](O)[C@H](O)[C@H](O)CO)C(=O)CCCC(C)c1ccc(C)c(CNC2(c3cnccc3-c3ccccc3OC3CC3)CC2)c1` (stereo partly drawn) [Compound I-360, 5-{3-[({1-[4-(2-cyclopropoxyphenyl)pyridin-3-yl]cyclopropyl}amino)methyl]-4-methylphenyl}-N-[(methylcarbamoyl)methyl]-N-[(2S,3R,4R,5R)-2,3,4,5,6-pentahydroxyhexyl]hexanamide] the figure was less than 100 nM. Take `Cc1ccc(C(C)CCCC(=O)N(CCN(C)C)C[C@H](O)[C@@H](O)[C@H](O)[C@H](O)CO)cc1CNC1(c2cnccc2-c2ccccc2OC2CC2)CC1` (stereo partly drawn) [Compound I-361, 5-{3-[({1-[4-(2-cyclopropoxyphenyl)pyridin-3-yl]cyclopropyl}amino)methyl]-4-methylphenyl}-N-[2-(dimethylamino)ethyl]-N-[(2S,3R,4R,5R)-2,3,4,5,6-pentahydroxyhexyl]hexanamide]: the EC50 was 126 to 1000 nM. With `COCCCN(C[C@H](O)[C@@H](O)[C@H](O)[C@H](O)CO)C(=O)CCCC(C)c1ccc(C)c(CNC2(c3cnccc3-c3ccccc3OC3CC3)CC2)c1` (stereo partly drawn) [Compound I-362, 5-{3-[({1-[4-(2-cyclopropoxyphenyl)pyridin-3-yl]cyclopropyl}amino)methyl]-4-methylphenyl}-N-(3-methoxypropyl)-N-[(2S,3R,4R,5R)-2,3,4,5,6-pentahydroxyhexyl]hexanamide] the figure was less than 100 nM; with `Cc1ccc(C(C)CCCC(=O)N(C[C@H](O)[C@@H](O)[C@H](O)[C@H](O)CO)C2CCOCC2)cc1CNC1(c2cnccc2-c2ccccc2OC2CC2)CC1` (stereo partly drawn) [Compound I-363, 5-{3-[({1-[4-(2-cyclopropoxyphenyl)pyridin-3-yl]cyclopropyl}amino)methyl]-4-methylphenyl}-N-(oxan-4-yl)-N-[(2S,3R,4R,5R)-2,3,4,5,6-pentahydroxyhexyl]hexanamide], less than 100 nM. Take `Cc1ccc(C(C)CCCC(=O)N(CC(=O)N(C)C)C[C@H](O)[C@@H](O)[C@H](O)[C@H](O)CO)cc1CNC1(c2cnccc2-c2ccccc2OC2CC2)CC1` (stereo partly drawn) [Compound I-364, 5-{3-[({1-[4-(2-cyclopropoxyphenyl)pyridin-3-yl]cyclopropyl}amino)methyl]-4-methylphenyl}-N-[(dimethylcarbamoyl)methyl]-N-[(2S,3R,4R,5R)-2,3,4,5,6-pentahydroxyhexyl]hexanamide]: the EC50 was 126 to 1000 nM. On to `CCNC(=O)CCN(C[C@H](O)[C@@H](O)[C@H](O)[C@H](O)CO)C(=O)CCCC(C)c1ccc(C)c(CNC2(c3cnccc3-c3ccccc3OC3CC3)CC2)c1` (stereo partly drawn) [Compound I-365, 5-{3-[({1-[4-(2-cyclopropoxyphenyl)pyridin-3-yl]cyclopropyl}amino)methyl]-4-methylphenyl}-N-[2-(ethylcarbamoyl)ethyl]-N-[(2S,3R,4R,5R)-2,3,4,5,6-pentahydroxyhexyl]hexanamide], for which the EC50 is 126 to 1000 nM. As for `Cc1ccc(C(C)CCCC(=O)N(CCC(=O)N(C)C)C[C@H](O)[C@@H](O)[C@H](O)[C@H](O)CO)cc1CNC1(c2cnccc2-c2ccccc2OC2CC2)CC1` (stereo partly drawn) [Compound I-366, 5-{3-[({1-[4-(2-cyclopropoxyphenyl)pyridin-3-yl]cyclopropyl}amino)methyl]-4-methylphenyl}-N-[2-(dimethylcarbamoyl)ethyl]-N-[(2S,3R,4R,5R)-2,3,4,5,6-pentahydroxyhexyl]hexanamide], the EC50 is 126 to 1000 nM.
